DC50 data for 34 compounds are collected here from patent publication US20250206724A1, “SUBSTITUTED 3-AMINO INDAZOLE DERIVATIVES AS KINASE INHIBITORS” (NERVIANO MEDICAL SCIENCES S.R.L., priority 2022, published 2025).

Where a name gives a salt, the structure may show the parent alone.

For this experiment, the target named is T1, CDK11A (Homo sapiens, UniProt Q9UQ88).
T1 sequence (Q9UQ88 346-783): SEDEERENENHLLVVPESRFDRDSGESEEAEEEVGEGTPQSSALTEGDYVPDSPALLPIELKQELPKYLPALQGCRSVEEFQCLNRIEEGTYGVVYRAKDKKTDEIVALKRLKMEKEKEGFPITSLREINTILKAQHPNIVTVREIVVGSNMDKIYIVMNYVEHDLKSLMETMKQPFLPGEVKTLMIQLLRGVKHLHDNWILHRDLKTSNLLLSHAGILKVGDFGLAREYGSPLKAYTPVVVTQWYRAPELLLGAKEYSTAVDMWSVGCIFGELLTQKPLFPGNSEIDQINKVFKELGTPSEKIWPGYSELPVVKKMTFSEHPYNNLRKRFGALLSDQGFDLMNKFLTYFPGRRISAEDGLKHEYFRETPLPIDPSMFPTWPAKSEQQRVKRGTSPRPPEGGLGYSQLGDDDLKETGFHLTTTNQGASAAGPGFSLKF
To be noted: displacement of SNS-032-Atto590 probe (0.002 μM) from CDK11A-p58 (0.032 uM), fluorescence polarization.
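Also: compound preincubated 30 min with CDK11A-p58, then probe added and polarization (mP) read 15 min later, 0% displacement is probe plus enzyme, 100% is probe alone.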

Take `O=C(Nc1n[nH]c2ccc(-c3c(Cl)cccc3Cl)cc12)[C@H]1CCNC1` [compound 168, (3S)-N-[5-(2,6-Dichlorophenyl)-1H-indazol-3-yl]pyrrolidine-3-carboxamide hydrochloride]: the DC50 was 98 nM.
In turn, `O=C(Nc1n[nH]c2ccc(-c3c(Cl)cccc3Cl)cc12)[C@H]1CCCNC1` [compound 170, (3S)-N-[5-(2,6-Dichlorophenyl)-1H-indazol-3-yl]piperidine-3-carboxamide hydrochloride] had a DC50 of 177 nM.
In turn, `O=C(Nc1n[nH]c2ccc(-c3c(F)cccc3Cl)cc12)[C@@H]1CCCNC1` [compound 172, (3R)-N-[5-(2-Chloro-6-fluorophenyl)-1H-indazol-3-yl]piperidine-3-carboxamide hydrochloride] yielded a DC50 of 42 nM.
`O=C(Nc1n[nH]c2ccc(-c3c(F)cccc3Cl)cc12)[C@H]1CCCNC1` [compound 173, (3S)-N-[5-(2-Chloro-6-fluorophenyl)-1H-indazol-3-yl]piperidine-3-carboxamide hydrochloride] showed a DC50 of 391 nM.
Compound `NCCC(=O)Nc1n[nH]c2ccc(-c3c(Cl)cccc3Cl)cc12` [compound 175, N-[5-(2,6-Dichlorophenyl)-1H-indazol-3-yl]-b-alaninamide hydrochloride] displayed a DC50 of 339 nM.
On to `C[C@H]1CC[C@@H](C(=O)Nc2n[nH]c3ccc(-c4c(Cl)cccc4Cl)cc23)CN1` [compound 177, (3R,6S)-N-[5-(2,6-Dichlorophenyl)-1H-indazol-3-yl]-6-methylpiperidine-3-carboxamide trifluoroacetate], for which the DC50 is 54 nM.
Next, `C[C@@H]1CC[C@@H](C(=O)Nc2n[nH]c3ccc(-c4c(Cl)cccc4Cl)cc23)CN1` [compound 178, (3R,6R)-N-[5-(2,6-Dichlorophenyl)-1H-indazol-3-yl]-6-methylpiperidine-3-carboxamide trifluoroacetate]: 28 nM.
Next, `N#Cc1ccc(Cl)c(-c2ccc3[nH]nc(NC(=O)[C@H]4CCCNC4)c3c2)c1` [compound 181, (3S)-N-[5-(2-Chloro-5-cyanophenyl)-1H-indazol-3-yl]piperidine-3-carboxamide hydrochloride]: 64 nM.
`N#Cc1ccc(Cl)c(-c2ccc3[nH]nc(NC(=O)[C@H]4CNCCO4)c3c2)c1` [compound 182, (2R)-N-[5-(2-Chloro-5-cyanophenyl)-1H-indazol-3-yl]morpholine-2-carboxamide hydrochloride] showed a DC50 of 140 nM.
Turning to `N#Cc1ccc(Cl)c(-c2ccc3[nH]nc(NC(=O)C4CCCCNC4)c3c2)c1` (stereo not shown) [compound 183, N-[5-(2-Chloro-5-cyanophenyl)-1H-indazol-3-yl]azepane-3-carboxamide hydrochloride], the DC50 was 73 nM.
As for `N#Cc1ccc(Cl)c(-c2ccc3[nH]nc(NC(=O)C4CN5CCC4CC5)c3c2)c1` (stereo not shown) [compound 188, N-[5-(2-Chloro-5-cyanophenyl)-1H-indazol-3-yl]-1-azabicyclo[2.2.2]octane-3-carboxamide hydrochloride], the DC50 came to 275 nM.
Next, `CC(OC(=O)C(C)C)OC(=O)N1CCC[C@@H](C(=O)Nc2n[nH]c3ccc(-c4cc(C#N)ccc4Cl)cc23)C1` (stereo partly drawn) [compound 190, 1-[(2-Methylpropanoyl)oxy]ethyl (3R)-3-{[5-(2-chloro-5-cyanophenyl)-1H-indazol-3-yl]carbamoyl}piperidine-1-carboxylate]: 706 nM; `CC(C)(C)C(=O)OCOC(=O)N1CCC[C@@H](C(=O)Nc2n[nH]c3ccc(-c4cc(C#N)ccc4Cl)cc23)C1` [compound 193, [(2,2-Dimethylpropanoyl)oxy]methyl (3R)-3-{[5-(2-chloro-5-cyanophenyl)-1H-indazol-3-yl]carbamoyl}-piperidine-1-carboxylate]: 340 nM; `CC(C)C(OC(=O)N1CCC[C@@H](C(=O)Nc2n[nH]c3ccc(-c4cc(C#N)ccc4Cl)cc23)C1)OC(=O)C(C)(C)C` (stereo partly drawn) [compound 197, 1-[(2,2-Dimethylpropanoyl)oxy]-2-methylpropyl (3R)-3-{[5-(2-chloro-5-cyanophenyl)-1H-indazol-3-yl]carbamoyl}piperidine-1-carboxylate]: 900 nM.
Next, `Nc1ccc(-c2ccc3[nH]nc(NC(=O)C4CCCNC4)c3c2)c(Cl)c1` (stereo not shown) [cpd 1, N-[5-(4-Amino-2-chlorophenyl)-1H-indazol-3-yl]piperidine-3-carboxamide dihydrochloride]: 49 nM; `O=C(Nc1n[nH]c2ccc(-c3ccc(O)cc3Cl)cc12)C1CCCNC1` (stereo not shown) [cpd 3, N-[5-(2-Chloro-4-hydroxyphenyl)-1H-indazol-3-yl]piperidine-3-carboxamide hydrochloride]: 51 nM.
On to `O=C(Nc1n[nH]c2ccc(-c3cc(Cl)ccc3Cl)cc12)C1CCCNC1` (stereo not shown) [cpd 4, N-[5-(2,5-Dichlorophenyl)-1H-indazol-3-yl]piperidine-3-carboxamide hydrochloride], for which the DC50 worked out at 50 nM.
Next, `Nc1ccc(-c2ccc3[nH]nc(NC(=O)[C@@H]4CCCNC4)c3c2)c(Cl)c1` [cpd 5, (3R)-N-[5-(4-Amino-2-chlorophenyl)-1H-indazol-3-yl]piperidine-3-carboxamide dihydrochloride]: 18 nM; `O=C(Nc1n[nH]c2ccc(-c3ccc(O)cc3Cl)cc12)[C@@H]1CCCNC1` [cpd 6, (3R)-N-[5-(2-chloro-4-hydroxyphenyl)-1H-indazol-3-yl]piperidine-3-carboxamide hydrochloride]: 23 nM; `Cc1ccc(-c2ccc3[nH]nc(NC(=O)[C@@H]4CCCNC4)c3c2)c(Cl)c1` [cpd 8, (3R)-N-[5-(2-Chloro-4-methylphenyl)-1H-indazol-3-yl]piperidine-3-carboxamide hydrochloride]: 125 nM.
Next, `NC(=O)c1ccc(Cl)c(-c2ccc3[nH]nc(NC(=O)C4CCCNC4)c3c2)c1` (stereo not shown) [cpd 9, N-[5-(5-Carbamoyl-2-chlorophenyl)-1H-indazol-3-yl]piperidine-3-carboxamide hydrochloride]: 131 nM.
Compound `Nc1cccc(-c2ccc3[nH]nc(NC(=O)C4CCCNC4)c3c2)c1F` (stereo not shown) [cpd 11, N-[5-(3-Amino-2-fluorophenyl)-1H-indazol-3-yl]piperidine-3-carboxamide hydrochloride] showed a DC50 of 183 nM.
As to `O=C(Nc1n[nH]c2ccc(-c3cc(Cl)ccc3Cl)cc12)[C@@H]1CCCNC1` [cpd 13, (3R)-N-[5-(2,5-Dichlorophenyl)-1H-indazol-3-yl]piperidine-3-carboxamide hydrochloride], the DC50 was determined as 36 nM.
Take `O=C(Nc1n[nH]c2ccc(-c3ccc(Cl)cc3Cl)cc12)[C@@H]1CCCNC1` [cpd 14, (3R)-N-[5-(2,4-Dichlorophenyl)-1H-indazol-3-yl]piperidine-3-carboxamide hydrochloride]: the DC50 was determined as 87 nM.
`O=C(Nc1n[nH]c2ccc(-c3cc(Cl)ccc3C(F)(F)F)cc12)C1CCCNC1` (stereo not shown) [cpd 15, N-{5-[5-Chloro-2-(trifluoromethyl)phenyl]-1H-indazol-3-yl}piperidine-3-carboxamide trifluoroacetate] gave a DC50 of 130 nM.
Consider `CC(=O)c1ccc(F)c(-c2ccc3[nH]nc(NC(=O)C4CCCNC4)c3c2)c1` (stereo not shown) [cpd 16, N-[5-(5-Acetyl-2-fluorophenyl)-1H-indazol-3-yl]piperidine-3-carboxamide hydrochloride], for which the DC50 amounted to 72 nM.
The compound `COc1ccc(Cl)c(-c2ccc3[nH]nc(NC(=O)C4CCCNC4)c3c2)c1` (stereo not shown) [cpd 17, N-[5-(2-Chloro-5-methoxyphenyl)-1H-indazol-3-yl]piperidine-3-carboxamide hydrochloride] yielded a DC50 of 52 nM.
As for `COc1ccc(Cl)c(-c2ccc3[nH]nc(NC(=O)[C@@H]4CCCNC4)c3c2)c1` [cpd 18, (3R)-N-[5-(2-Chloro-5-methoxyphenyl)-1H-indazol-3-yl]piperidine-3-carboxamide hydrochloride], the DC50 worked out at 25 nM.
The compound `CC(=O)c1ccc(F)c(-c2ccc3[nH]nc(NC(=O)[C@@H]4CCCNC4)c3c2)c1` [cpd 19, (3R)-N-[5-(5-Acetyl-2-fluorophenyl)-1H-indazol-3-yl]piperidine-3-carboxamide hydrochloride] had a DC50 of 27 nM.
Next, `COc1ccc(F)c(-c2ccc3[nH]nc(NC(=O)[C@@H]4CCCNC4)c3c2)c1` [cpd 20, (3R)-N-[5-(2-Fluoro-5-methoxyphenyl)-1H-indazol-3-yl]piperidine-3-carboxamide hydrochloride]: 89 nM; `O=C(Nc1n[nH]c2ccc(-c3cc(Cl)ccc3F)cc12)[C@@H]1CCCNC1` [cpd 21, (3R)-N-[5-(5-Chloro-2-fluorophenyl)-1H-indazol-3-yl]piperidine-3-carboxamide hydrochloride]: 46 nM.
`CCOc1ccc(F)c(-c2ccc3[nH]nc(NC(=O)[C@@H]4CCCNC4)c3c2)c1` [cpd 22, (3R)-N-[5-(5-Ethoxy-2-fluorophenyl)-1H-indazol-3-yl]piperidine-3-carboxamide hydrochloride] gave a DC50 of 55 nM.
In turn, `O=C(Nc1n[nH]c2ccc(-c3cc(OC(F)(F)F)ccc3F)cc12)[C@@H]1CCCNC1` [cpd 23, (3R)-N-{5-[2-Fluoro-5-(trifluoromethoxy)phenyl]-1H-indazol-3-yl}piperidine-3-carboxamide hydrochloride] showed a DC50 of 75 nM.
Consider `O=C1CCC(C(=O)Nc2n[nH]c3ccc(-c4c(Cl)cccc4Cl)cc23)CN1` (stereo not shown) [cpd 27, N-[5-(2,6-Dichlorophenyl)-1H-indazol-3-yl]-6-oxopiperidine-3-carboxamide], for which the DC50 was found to be 338 nM.
